From patent publication US10828299B2 (Gilead Sciences, Inc., priority 2013, dated 2020)

Tested on: human hepatocytes
Experiment: Human Hepatocyte Stability Assay
Assay type: in vitro ADME
Conditions: comparison table with known compounds; head prints (units)
Experimental: The human […] stability of the compounds as predicted hepatocyte clearance in L/hr/kg was assessed. Compounds to be tested were diluted to 200 μM (4 μl of 10 mM DMSO stock into 196 μl ACN:H2O (50:50). Propranolol was used as a positive control, and buffer only without hepatocytes as 0% control. These were further diluted 4 μl with 891 μl KHB buffer (InVitroGRO catalog number Z99074) to provide 2× dosing solution. To each well of 24 well plate, 250 μl of the 2× dosing solution was added to each well with 250 μl of hepatocytes cells (1×10^6 viable cells/ml per well) or KHB for control samples to achieve a final compound concentration of 1 μM during incubation. The final solvent concentration was 0.01% DMSO and 0.25% ACN. The culture plate was placed on a rocker and incubated at 37° C., 5% CO2. Samples were collected at time 0, 1, 3, and 6 hours. The loss of parent compound was determined using LC-MS methods against a standard curve.

Compound	Hheps CL [mL/min/kg]
Nc1cncc(-c2cn3ccnc3c(Nc3ccc(N4CCN(C5COC5)CC4)c(OCCO)c3)n2)n1 [Ex.-5, 2-(5-((6-(6-aminopyrazin-2-yl)imidazo[1,2-a]pyrazin-8-yl)amino)-2-(4-(oxetan-3-yl)piperazin-1-yl)phenoxy)ethanol]	1.2
Cc1ncc(-c2cn3ccnc3c(Nc3ccc(N4CCN(C5COC5)CC4)cc3)n2)nc1N [Ex.-1, 6-(6-amino-5-methylpyrazin-2-yl)-N-(4-(4-(oxetan-3-yl)piperazin-1-yl)phenyl)imidazo[1,2-a]pyrazin-8-amine]	2
Nc1cncc(-c2cn3ccnc3c(Nc3ccc(N4CCN(CC(CO)CO)CC4)cc3)n2)n1 [Ex.-6, 2-((4-(4-((6-(6-aminopyrazin-2-yl)imidazo[1,2-a]pyrazin-8-yl)amino)phenyl)piperazin-1-yl)methyl)propane-1,3-diol]	1.3
Nc1cncc(-c2cn3ccnc3c(Nc3ccc(N4CCO[C@@H](CO)C4)cc3)n2)n1 [Ex.-3, (R)-(4-(4-((6-(6-aminopyrazin-2-yl)imidazo[1,2-a]pyrazin-8-yl)amino)phenyl)morpholin-2-yl)methanol]	1.5
Cc1ncc(-c2cn3ccnc3c(Nc3ccc(N4CCN(C5COC5)CC4)c(OCCO)c3)n2)nc1N [Ex.-7, 2-(5-((6-(6-amino-5-methylpyrazin-2-yl)imidazo[1,2-a]pyrazin-8-yl)amino)-2-(4-(oxetan-3-yl)piperazin-1-yl)phenoxy)ethanol]	0.83
Nc1cncc(-c2cn3ccnc3c(Nc3ccc(N4CCN(C5COC5)CC4)cc3)n2)n1 [Ex.-2, 6-(6-aminopyrazin-2-yl)-N-(4-(4-(oxetan-3-yl)piperazin-1-yl)phenyl)imidazo[1,2-a]pyrazin-8-amine]	0.917
Cc1c(-c2cncc(N)n2)nc(Nc2ccc(N3CCN(C4COC4)CC3)cc2)c2nccn12 [Ex.-4, 6-(6-aminopyrazin-2-yl)-5-methyl-N-(4-(4-(oxetan-3-yl)piperazin-1-yl)phenyl)imidazo[1,2-a]pyrazin-8-amine]	1.3

The next lines start with the values.

Hheps CL [mL/min/kg]	Compound
15	COc1ccc(Nc2nc(-c3ccc(N)nc3)cn3ccnc23)cc1OC [6-(6-aminopyridin-3-yl)-N-(3,4-dimethoxyphenyl)imidazo[1,2-a]pyrazin-8-amine, reference compound]
11.3	Nc1cncc(-c2cn3ccnc3c(Nc3ccc(N4CCOCC4)cc3)n2)c1 [6-(5-aminopyridin-3-yl)-N-(4-morpholinophenyl)imidazo[1,2-a]pyrazin-8-amine, reference compound]
13.3	Cc1ncc(-c2cn3ccnc3c(Nc3ccc(N4CCOCC4)cc3)n2)cc1N [6-(5-amino-6-methylpyridin-3-yl)-N-(4-morpholinophenyl)imidazo[1,2-a]pyrazin-8-amine, reference compound]
4	COc1ccc(Nc2nc(-c3cccc(N)c3)cn3ccnc23)cc1OC [6-(3-aminophenyl)-N-(3,4-dimethoxyphenyl)imidazo[1,2-a]pyrazin-8-amine, reference compound]
